Values of other authors, collected in patent publication US20070225217A1, “Methods, compositions, and kits for the treatment of medical conditions” (CombinatoRx, Incorporated, priority 2005, published 2007).

Compound: CO[C@H]1C[C@@H]2CC[C@@H](C)[C@@](O)(O2)C(=O)C(=O)N2CCCC[C@H]2C(=O)O[C@H]([C@H](C)C[C@@H]2CC[C@@H](O)[C@H](OC)C2)CC(=O)[C@H](C)/C=C(\C)[C@@H](O)[C@@H](OC)C(=O)[C@H](C)C[C@H](C)/C=C/C=C/C=C/1C [Rapamycin]
- absorption after oral administration: absorbed rapidly and completely
